# Where “and” joins values, the source holds several entries; their conditions need not be identical. Equal entries are not always repeated. Where two headings read alike, the source gives them in different places.
# Key:
# [1] = Study 1: plasma HMB after a single dose, sampled to 180 min; format: in vivo, human; conditions: for greater area under the curve (AUC) than CaHMB / AUC plasma HMB: 180 min; for Cpeak (peak plasma HMB concentration): single dose 1 g CaHMB or 0.80 g free acid
# Text: (§1) Human subjects. In study 1, four male and four female college-aged subjects were studied. In study 2, an additional four male and four female college-aged subjects were studied. The protocols for both studies were approved by the Iowa State University IRB and each subject gave informed consent to participate in the study. Due to the nature of the treatments, neither the subjects nor the researchers could be blinded.
# (§2) Treatments. The same treatments were given to the subjects in both study groups. The three treatments were given in random order to each subject with at least a one week washout period between treatments. The treatments were supplied by Metabolic Technologies, Inc. (MTI, Ames, Iowa) and were prepared with food grade ingredients. One gram of CaHMB or the equivalent HMB in free acid in a gel form was administered to the subjects. The CaHMB capsules were obtained from a commercial supplement manufacturer (Optimum Nutrition, Aurora, Ill.) while the HMB-acid gel was prepared at MTI laboratories. Briefly, the HMB-acid was adjusted to a pH 4.5 with potassium carbonate (K2CO3) and flavors and sweeteners were then added. The 1.0 g CaHMB capsule was taken with 355 mL of water (approx. 12 oz.). The free acid gel dosage was 0.80 g and was equivalent to the free acid contained in the CaHMB in the capsule. The free acid gel treatments were either swallowed (FASW) or held sublingual for 15 seconds and then swallowed (FASL). FASW consisted of expelling the entire dose into the mouth in a 3 ml syringe, swallowing, and then following this with 355 mL of water. FASL subjects were instructed to place the entire dosage under the tongue and hold the dosage for 15 sec before swallowing. They then rinsed and followed the dose with 355 mL of water.
# Study 1 design. For study 1 the subjects reported to the laboratory in the morning following an overnight fast. Before ingestion of one of the supplemental treatments, a flexible sterile polyethylene catheter was inserted into a forearm vein using sterile procedures and a pre-ingestion blood sample was drawn. Subsequent blood samples were taken at 0, 2, 5, 10, 15, 25, 35, 45, 60, 90, 120 and 180 min after ingestion of the treatment. Plasma was separated and samples were stored frozen at −70° C. for analysis of HMB concentration. In addition, a portion of the pre-ingestion and 180 minute blood samples were used for measurements (LabCorp, Kansas City, Mo.) of glucose, uric acid, blood urea nitrogen (BUN), creatinine, sodium, potassium, chloride, carbon dioxide, phosphorous, protein, albumin, globulin, albumin:globulin ratio, total bilirubin, direct bilirubin, alkaline phosphatase, lactate dehydrogenase, aspartate aminotransferase (AST), alanine aminotransferase (ALT), gamma-glutamyl transpeptidase (GGT), iron binding capacity (TIBC), unsaturated iron binding capacity (UIBC), iron, iron saturation, total cholesterol, triglycerides, high density lipoprotein (HDL), low density lipoprotein (LDL), and cholesterol ratio. A complete blood count (CBC) was also performed before and after the 180 min treatment period. Subjects also completed a brief questionnaire to report any physical symptoms (such as nausea, headache, etc) they may have experienced during the experiment.
# (§3) HMB analysis. Plasma and urine HMB were analyzed by gas chromatography/mass spectrometry (GC/MS) as previously described.(27)
# Calculations and statistics. Areas under the curves were calculated for each subject using the trapezoidal method that sums the area above baseline.(51) Half-life of plasma HMB was calculated for study 2. The following equations were used: […]
# The data were analyzed using a crossover design with Proc GLM in SAS. (45) For the timed sampling of plasma HMB a repeated measures polynomial model was used. The model included subject, order, and treatment main effects and time by treatment interaction where appropriate. […]
# [2] = Study 2: plasma HMB and urinary HMB excretion over 24 h; format: in vivo, human; conditions: Study 2; for AUC plasma HMB: 24 h; for Clearance: Vd assumed 20% of body weight; for AUC greater than for CaHMB capsules: over 24 hours; for tpeak: unit as in Table 5
# Text: as §1, §2
# Study 2 design. Study 2 was conducted similar to study 1 with the following modifications. In study 2, plasma levels of HMB were measured for 1440 min (24 h) and total urine collection was also performed for measurement of urinary HMB excretion during this period. After the 180 min blood sample, the subjects were allowed to leave the laboratory and were instructed to return to the laboratory for additional blood samples at 360, 720, and 1440 min after the ingestion of the supplement. As in study 1, each subject took each of the treatments with at least a one week washout period between treatments. Samples were again stored frozen at −70° C. for analysis of plasma and urinary HMB concentrations. Pre-ingestion, 180 min and 1440 min blood samples were again assayed for the same measurements already for study 1. Subjects were provided with a standardized lunch after the 180 min blood sampling and instructed to eat this at approximately 240 min post ingestion. Following the 720 min blood sample, subjects were instructed to eat a normal evening meal before 10 pm. Subjects reported back to the laboratory the following morning for the fasted 1440 min blood sample. A urine collection container was provided and subjects collected all urine produced during the experimental 24 h experimental period. The urine was stored refrigerated when not being collected. Urine volumes were measured and samples of the total urine collection were taken and stored frozen at −70° C. until analyzed for HMB.
# as §3
# Calculations and statistics. Areas under the curves were calculated for each subject using the trapezoidal method that sums the area above baseline.(51) Half-life of plasma HMB was calculated for study 2. The following equations were used:
# k=(ln(Cpeak)−ln(Ctrough))/Tinterval
# Peak plasma concentrations for each subject were used for Cpeak. […] Tpeak was the time at which Cpeak was measured and Tinterval is the time from Tpeak until the time at Ctrough (720 min). The extracellular fluid compartment was assumed to be 20% of body weight and calculated using equation 3 below(1). […]
# [3] = listed as Free Acid Gel Sublingual
# [4] = listed as Free Acid Gel Swallow
smiles,measurement,setting,value
"CC(C)(O)CC(=O)O [HMB-Acid Gel Sublingual, 3-hydroxy-3-methylbutyric acid]",greater area under the curve (AUC) than CaHMB,[1]; listed as FASL,91%
same,AUC plasma HMB,[1]; [3],"26,778 ± 1,980 nmol/180 min"
same,tpeak (time to reach peak plasma concentration),[1]; listed as FASL,36.3 ± 1.3 min
same,tpeak (time to reach peak plasma concentration),[1]; [3],36.3 ± 1.3 min
same,Cpeak (peak plasma HMB concentration),[1]; listed as FASL,231 ± 21 nmol/mL
same,Cpeak (peak plasma HMB concentration),[1]; [3],231.2 ± 21.0 nmol/mL
same,24 h Urine HMB,[2],1.16 ± 0.17 mmol
same,"24 h Urine HMB, % initial dose",[2],17.2 ± 2.5 % initial dose
same,Cpeak (peak plasma HMB concentration),[2],247.6 ± 19.8 nmol/mL
same,AUC plasma HMB,[2],"52,886 ± 2,729 nmol/1440 min"
same,Clearance,[2],66.9 ± 1.6 mL/min
same,"24 h Urine HMB, % initial dose",[2]; listed as FASL,17.2±2.5 % initial dose
same,Cpeak (peak plasma HMB concentration),[2]; listed as FASL,247.6 ± 19.8 nmol/mL
same,Half-life of plasma HMB,[2]; listed as FASL,2.51 ± 0.14 h
same,time to peak plasma HMB concentration,[2]; listed as FASL,38.8 ± 2.6 min
same,AUC greater than for CaHMB capsules,[2]; listed as FASL,14.3%
same,tpeak,[2],38.8 ± 2.6 min
"CC(C)(O)CC(=O)[O-].CC(C)(O)CC(=O)[O-].[Ca+2] [CaHMB, calcium β-hydroxy-β-methylbutryate, reference compound]",time of peak plasma HMB,[1],122 ± 15.6 min
same,tpeak (time to reach peak plasma concentration),[1],121.9 ± 15.6 min
same,AUC plasma HMB,[1],"13,997 ± 1,534 nmol/180 min"
same,Cpeak (peak plasma HMB concentration),[1],131 ± 10 nmol/mL and 131.2 ± 10.1 nmol/mL
same,24 h Urine HMB,[2],1.00 ± 0.13 mmol
same,"24 h Urine HMB, % initial dose",[2],14.7±2.0 % initial dose
same,Cpeak (peak plasma HMB concentration),[2],131.2 ± 6.0 nmol/mL
same,Half-life of plasma HMB,[2],3.17 ± 0.22 h
same,time to peak plasma HMB concentration,[2],135.0 ± 17.0 min
same,AUC plasma HMB,[2],"46,281 ± 2,717 nmol/1440 min"
same,Clearance,[2],53.9 ± 4.2 mL/min
same,plasma HMB level at 360 and 720 min versus free acid gel,[2]; p<0.05,slightly higher
same,tpeak,[2],135 ± 17 min
"CC(C)(O)CC(=O)O [HMB-Acid Gel Swallow, 3-hydroxy-3-methylbutyric acid]",greater area under the curve (AUC) than CaHMB,[1]; listed as FASW,97%
same,AUC plasma HMB,[1]; [4],"27,532 ± 1,742 nmol/180 min"
same,tpeak (time to reach peak plasma concentration),[1]; listed as FASW,33.1 ± 4.6 min
same,tpeak (time to reach peak plasma concentration),[1]; [4],33.1 ± 4.6 min
same,Cpeak (peak plasma HMB concentration),[1]; listed as FASW,259 ± 24 nmol/mL
same,Cpeak (peak plasma HMB concentration),[1]; [4],259.1 ± 23.9 nmol/mL
same,24 h Urine HMB,[2],1.21 ± 0.19 mmol
same,"24 h Urine HMB, % initial dose",[2],17.8 ± 2.9 % initial dose
same,Cpeak (peak plasma HMB concentration),[2],238.6 ± 16.0 nmol/mL
same,AUC plasma HMB,[2],"53,395 ± 2,862 nmol/1440 min"
same,"24 h Urine HMB, % initial dose",[2]; listed as FASW,17.8±2.9 % initial dose
same,Cpeak (peak plasma HMB concentration),[2]; listed as FASW,238.6 ± 16.0 nmol/mL
same,time to peak plasma HMB concentration,[2]; listed as FASW,41.9 ± 5.8 min
same,AUC greater than for CaHMB capsules,[2]; listed as FASW,15.4%
same,tpeak,[2],41.9 ± 5.8 min
same,half-life,"[2]; both sexes, human, plasma, oral, 0.8 g",150 ± 7.8 min
same,Clearance,"[2]; both sexes, human, plasma, oral, 0.8 g, read-out: Clearance",67.3 ± 3.2 mL/min
